IC50 data for 24 compounds are collected here from US10479795B2 (Incyte Corporation, priority 2016, dated 2019).

Broadly, the IC50 is the concentration that inhibits the measured activity by half.

Where two headings read alike, the source gives them in different places.

Assay [1] addresses PI3Kγ (p110γ) Recombinant Human Protein (Homo sapiens (Human), UniProt P48736). Put plainly: PI3K-γ Scintillation Proximity Assay. It is filed as biochemical. An outline of the steps: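 Recombinant human p110γ assayed at room temperature in 20 mM MOPS pH 6.7, 10 mM MgCl2, 5 mM DTT, 0.03% CHAPS, 2% DMSO, with 20 μM PIP2 and 2 μM ATP plus [γ-33P]ATP. Product captured on WGA SPA beads overnight and counted; IC50 fitted from % of solvent-control activity versus log inhibitor concentration.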
Background: SPA uses beads or plates that emit light when radiolabelled molecules are held near them.

The target in assay [2] is PI3Kδ (p110δ/p85α) Recombinant Human Protein (Homo sapiens (Human), UniProt O00329). Briefly: PI3Kδ Scintillation Proximity Assay. Format: biochemical. An excerpt:
Example C. PI3Kδ Scintillation Proximity Assay
[γ-^33P]ATP (10 mCi/mL) and Wheat Germ Agglutinin (WGA) YSi SPA Scintillation Beads was purchased from Perkin-Elmer (Waltham, Mass.). Lipid kinase substrate, D-myo-Phosphatidylinositol 4,5-bisphosphate (PtdIns(4,5)P2)D (+)-sn-1,2-di-O-octanoylglyceryl, 3-O-phospho linked (PIP2), CAS 204858-53-7, was purchased from Echelon Biosciences (Salt Lake City, Utah). PI3Kδ (p110δ/p85α) Recombinant Human Protein was purchased from Eurofins (St Charles, Mo.). ATP, MgCl2, DTT, EDTA, MOPS and CHAPS were purchased from Sigma-Aldrich (St. Louis, Mo.).
The kinase reaction was conducted in polystyrene 384-well Greiner Bio-one white plate from Thermo Fisher Scientific in a final volume of 25 μL. Inhibitors were first diluted serially in DMSO and added to the plate wells before the addition of other reaction components. The final concentration of DMSO in the assay was 2%. The PI3Kδ assay was carried out at room temperature in 20 mM MOPS, pH 6.7, 10 mM MgCl2, 5 mM DTT and CHAPS 0.03%. Reactions were initiated by the addition of ATP, the final reaction mixture consisted of 20 μM PIP2, 2 μM ATP, 0.5 μCi [γ-^33P] ATP, 3.4 nM PI3Kδ. Reactions were incubated for 120 min and terminated by the addition of 40 μL SPA beads suspended in quench buffer: 163 mM potassium phosphate pH 7.8, 20% glycerol, 25 mM EDTA. The final concentration of SPA beads is 1.0 mg/mL. After the plate sealing, plates were shaken overnight at room temperature and centrifuged at 1500 rpm for 10 min, the radioactivity of the product was determined by scintillation counting on Topcount (Perkin-Elmer). IC50 determination was performed by fitting the curve of percent of the solvent control activity versus the log of the inhibitor concentration using the GraphPad Prism 6.0 software.

Chain of PI3Kγ (p110γ) Recombinant Human Protein (P48736 whole entry): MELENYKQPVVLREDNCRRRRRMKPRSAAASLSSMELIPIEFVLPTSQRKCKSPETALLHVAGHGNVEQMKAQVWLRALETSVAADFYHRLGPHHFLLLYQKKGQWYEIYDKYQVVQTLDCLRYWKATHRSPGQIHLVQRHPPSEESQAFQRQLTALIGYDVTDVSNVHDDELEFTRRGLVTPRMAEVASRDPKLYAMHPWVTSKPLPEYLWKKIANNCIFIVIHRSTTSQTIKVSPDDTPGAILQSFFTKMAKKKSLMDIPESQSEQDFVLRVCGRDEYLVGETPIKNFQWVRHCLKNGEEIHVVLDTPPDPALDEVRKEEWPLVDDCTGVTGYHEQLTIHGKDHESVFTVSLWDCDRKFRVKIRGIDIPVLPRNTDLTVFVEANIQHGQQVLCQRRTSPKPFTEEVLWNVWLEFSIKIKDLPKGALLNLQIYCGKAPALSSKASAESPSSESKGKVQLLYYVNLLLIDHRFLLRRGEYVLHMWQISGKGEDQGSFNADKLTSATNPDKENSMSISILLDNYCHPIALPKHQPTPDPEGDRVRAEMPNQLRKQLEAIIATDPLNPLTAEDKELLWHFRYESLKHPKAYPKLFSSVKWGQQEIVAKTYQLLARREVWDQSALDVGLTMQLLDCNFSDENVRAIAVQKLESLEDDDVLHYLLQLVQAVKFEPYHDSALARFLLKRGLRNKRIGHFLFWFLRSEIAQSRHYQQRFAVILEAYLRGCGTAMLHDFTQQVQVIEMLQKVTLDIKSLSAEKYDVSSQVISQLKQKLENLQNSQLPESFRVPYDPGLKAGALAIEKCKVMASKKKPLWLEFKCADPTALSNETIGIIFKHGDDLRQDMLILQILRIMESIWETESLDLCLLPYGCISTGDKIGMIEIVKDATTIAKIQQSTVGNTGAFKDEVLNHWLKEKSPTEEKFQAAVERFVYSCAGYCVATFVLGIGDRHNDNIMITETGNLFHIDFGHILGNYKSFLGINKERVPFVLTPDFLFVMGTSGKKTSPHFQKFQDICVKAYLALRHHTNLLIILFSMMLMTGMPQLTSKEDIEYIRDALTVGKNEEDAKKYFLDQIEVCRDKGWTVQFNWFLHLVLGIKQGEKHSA
Chain of PI3Kδ (p110δ/p85α) Recombinant Human Protein (O00329 whole entry): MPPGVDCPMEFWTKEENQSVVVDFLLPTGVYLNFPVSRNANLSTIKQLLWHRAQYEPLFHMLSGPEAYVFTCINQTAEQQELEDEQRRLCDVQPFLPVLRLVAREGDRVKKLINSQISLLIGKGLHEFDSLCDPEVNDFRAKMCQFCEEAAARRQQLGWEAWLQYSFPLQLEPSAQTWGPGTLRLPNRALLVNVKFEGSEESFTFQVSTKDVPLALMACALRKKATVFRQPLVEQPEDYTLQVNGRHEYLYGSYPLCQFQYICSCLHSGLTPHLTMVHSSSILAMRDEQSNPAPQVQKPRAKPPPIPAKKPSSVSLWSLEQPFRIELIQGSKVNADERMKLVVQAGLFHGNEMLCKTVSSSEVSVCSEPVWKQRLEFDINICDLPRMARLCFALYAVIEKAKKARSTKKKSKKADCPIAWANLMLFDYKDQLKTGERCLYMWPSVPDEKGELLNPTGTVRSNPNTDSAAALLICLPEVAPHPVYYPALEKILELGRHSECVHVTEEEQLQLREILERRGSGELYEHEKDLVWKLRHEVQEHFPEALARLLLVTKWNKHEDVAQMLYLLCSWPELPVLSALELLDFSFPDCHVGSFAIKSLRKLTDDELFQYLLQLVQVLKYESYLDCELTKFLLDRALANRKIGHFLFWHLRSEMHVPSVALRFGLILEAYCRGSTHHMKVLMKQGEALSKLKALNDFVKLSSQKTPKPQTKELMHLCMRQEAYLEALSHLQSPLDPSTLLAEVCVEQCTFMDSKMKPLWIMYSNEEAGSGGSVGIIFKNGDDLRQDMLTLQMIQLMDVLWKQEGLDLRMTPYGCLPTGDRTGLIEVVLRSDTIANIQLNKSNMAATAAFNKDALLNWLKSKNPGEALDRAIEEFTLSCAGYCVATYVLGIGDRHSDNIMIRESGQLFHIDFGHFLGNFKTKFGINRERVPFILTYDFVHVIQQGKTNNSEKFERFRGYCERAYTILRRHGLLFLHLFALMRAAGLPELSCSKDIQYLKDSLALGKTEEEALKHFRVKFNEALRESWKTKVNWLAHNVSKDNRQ
Chain of PI3Kδ (p110δ/p85α) Recombinant Human Protein (P27986 whole entry partner): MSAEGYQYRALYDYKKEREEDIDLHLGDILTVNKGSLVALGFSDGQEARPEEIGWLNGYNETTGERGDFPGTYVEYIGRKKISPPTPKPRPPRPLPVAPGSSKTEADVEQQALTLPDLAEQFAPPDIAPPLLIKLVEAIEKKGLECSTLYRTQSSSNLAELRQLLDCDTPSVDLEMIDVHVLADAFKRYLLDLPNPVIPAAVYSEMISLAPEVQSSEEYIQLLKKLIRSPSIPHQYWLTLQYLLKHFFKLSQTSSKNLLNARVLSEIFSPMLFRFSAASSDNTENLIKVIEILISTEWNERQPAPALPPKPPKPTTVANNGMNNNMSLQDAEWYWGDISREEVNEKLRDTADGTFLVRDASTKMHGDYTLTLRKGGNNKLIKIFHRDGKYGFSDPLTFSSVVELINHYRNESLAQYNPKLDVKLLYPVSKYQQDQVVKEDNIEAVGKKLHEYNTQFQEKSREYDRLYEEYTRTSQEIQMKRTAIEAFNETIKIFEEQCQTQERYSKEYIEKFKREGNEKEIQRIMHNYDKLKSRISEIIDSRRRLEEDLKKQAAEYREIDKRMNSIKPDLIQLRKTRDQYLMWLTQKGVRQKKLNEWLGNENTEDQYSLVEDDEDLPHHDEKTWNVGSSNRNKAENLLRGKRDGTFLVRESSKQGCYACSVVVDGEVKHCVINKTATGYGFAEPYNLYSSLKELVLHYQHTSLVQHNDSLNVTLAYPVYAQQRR

Regarding `Cc1ccc(S(=O)(=O)N(C)CCC#N)cc1-c1cnc2c(N)ncnn12` [Example 154, 3-(4-aminoimidazo[2,1-f][1,2,4]triazin-7-yl)-N-(2-cyanoethyl)-N,4-dimethylbenzenesulfonamide], the values for the IC50 in assay [1] (read-out: PI3Kγ IC50) and in assay [2] were less than 100 nM and more than 2000 nM, respectively.
In the same order, the values of `Cc1ccc(S(=O)(=O)N2CC(C)OCC2(C)C)cc1-c1cnc2c(N)ncnn12` (stereo not drawn) [Example 158, 7-(2-methyl-5-((2,5,5-trimethylmorpholino)sulfonyl)phenyl)imidazo[2,1-f][1,2,4]triazin-4-amine] are less than 100 nM and 500 to 2000 nM.
In the same order, the values of `Cc1ccc(S(=O)(=O)N(C)C2CC(O)C2)cc1-c1cnc2c(N)ncnn12` [Example 159, 3-(4-aminoimidazo[2,1-f][1,2,4]triazin-7-yl)-N-((1R,3R)-3-hydroxycyclobutyl)-N,4-dimethylbenzenesulfonamide] are 100 to 500 nM and more than 2000 nM.
As to `Cc1ccc(S(=O)(=O)N(C)CC2(CO)CC2)cc1-c1cnc2c(N)ncnn12` [Example 160, 3-(4-aminoimidazo[2,1-f][1,2,4]triazin-7-yl)-N-((1-(hydroxymethyl)cyclopropyl)methyl)-N,4-dimethylbenzenesulfonamide], the concentration for half-maximal inhibition (IC50) in assay [1] (read-out: PI3Kγ IC50) was 100 to 500 nM; in assay [2] it was 500 to 2000 nM.
For `Cc1ccc(S(=O)(=O)N2CCS(=O)(=O)CC2)cc1-c1cnc2c(N)ncnn12` [Example 161, 4-((3-(4-aminoimidazo[2,1-f][1,2,4]triazin-7-yl)-4-methylphenyl)sulfonyl)thiomorpholine 1,1-dioxide] the same measures were less than 100 nM and 100 to 500 nM.
In the same order, the values of `Cc1ccc(S(=O)(=O)N2CCS(=O)(=O)CC2C)cc1-c1cnc2c(N)ncnn12` (stereo not drawn) [Example 162, 4-((3-(4-aminoimidazo[2,1-f][1,2,4]triazin-7-yl)-4-methylphenyl)sulfonyl)-3-methylthiomorpholine 1,1-dioxide] are less than 100 nM and 500 to 2000 nM.
In the same order, the values of `Cc1ccc(S(=O)(=O)N(C)CC(F)(F)F)cc1-c1cnc2c(N)ncnn12` [Example 163, 3-(4-aminoimidazo[2,1-f][1,2,4]triazin-7-yl)-N,4-dimethyl-N-(2,2,2-trifluoroethyl)benzenesulfonamide] are less than 100 nM and 500 to 2000 nM.
`CCCN(CC1CC1)S(=O)(=O)c1ccc(C)c(-c2cnc3c(N)ncnn23)c1` [Example 164, 3-(4-aminoimidazo[2,1-f][1,2,4]triazin-7-yl)-N-(cyclopropylmethyl)-4-methyl-N-propylbenzenesulfonamide]: the concentration for half-maximal inhibition (IC50) in assay [1] (read-out: PI3Kγ IC50) was less than 100 nM; in assay [2], 500 to 2000 nM.
In the same order, the values of `Cc1ccc(S(=O)(=O)N2C[C@H](O)[C@@H](N3CCN(C)CC3)C2)cc1-c1cnc2c(N)ncnn12` [Example 167, (3S,4S)-1-((3-(4-aminoimidazo[2,1-f][1,2,4]triazin-7-yl)-4-methylphenyl)sulfonyl)-4-(4-methylpiperazin-1-yl)pyrrolidin-3-ol] are 100 to 500 nM and more than 2000 nM.
For `Cc1ccc(S(=O)(=O)N2CCCC2c2c(C)noc2C)cc1-c1cnc2c(N)ncnn12` (stereo not drawn) [Example 168, 7-(5-((2-(3,5-dimethylisoxazol-4-yl)pyrrolidin-1-yl)sulfonyl)-2-methylphenyl)imidazo[2,1-f][1,2,4]triazin-4-amine] the same measures were less than 100 nM and 500 to 2000 nM.
For `Cc1ccc(S(=O)(=O)N2C3CCC2CC(N2CCOCC2)C3)cc1-c1cnc2c(N)ncnn12` (stereo not drawn) [Example 169, 7-(2-methyl-5-((3-morpholino-8-azabicyclo[3.2.1]octan-8-yl)sulfonyl)phenyl)imidazo[2,1-f][1,2,4]triazin-4-amine] the same measures were 100 to 500 nM and more than 2000 nM.
With `Cc1ccc(S(=O)(=O)N2[C@@H]3CC[C@H]2CN(C)C3)cc1-c1cnc2c(N)ncnn12` [Example 170, 7-(2-methyl-5-(((1R,5S)-3-methyl-3,8-diazabicyclo[3.2.1]octan-8-yl)sulfonyl)phenyl)imidazo[2,1-f][1,2,4]triazin-4-amine], the IC50 in assay [1] (read-out: PI3Kγ IC50) was less than 100 nM; in assay [2], 500 to 2000 nM.
With `Cc1ccc(S(=O)(=O)N2CCN(C3CC3)C(=O)C2)cc1-c1cnc2c(N)ncnn12` [Example 171, 4-((3-(4-aminoimidazo[2,1-f][1,2,4]triazin-7-yl)-4-methylphenyl)sulfonyl)-1-cyclopropylpiperazin-2-one], the values for the IC50 in assay [1] (read-out: PI3Kγ IC50) and in assay [2] were 100 to 500 nM and 500 to 2000 nM, respectively.
For the compound `Cc1ccc(S(=O)(=O)N2CC(=O)N3CCCC[C@@H]3C2)cc1-c1cnc2c(N)ncnn12` [Example 172, (R)-2-((3-(4-aminoimidazo[2,1-f][1,2,4]triazin-7-yl)-4-methylphenyl)sulfonyl)octahydro-4H-pyrido[1,2-a]pyrazin-4-one], the IC50 in assay [1] (read-out: PI3Kγ IC50) lay in the range of 100 to 500 nM; in assay [2], 500 to 2000 nM.
For `Cc1ccc(S(=O)(=O)N(CCC#N)C2CCCCC2)cc1-c1cnc2c(N)ncnn12` [Example 173, 3-(4-aminoimidazo[2,1-f][1,2,4]triazin-7-yl)-N-(2-cyanoethyl)-N-cyclohexyl-4-methylbenzenesulfonamide] the same measures were 100 to 500 nM and more than 2000 nM.
In the same order, the values of `Cc1ccc(S(=O)(=O)N2CCN3C(=O)OC[C@H]3C2)cc1-c1cnc2c(N)ncnn12` [Example 174, (R)-7-((3-(4-aminoimidazo[2,1-f][1,2,4]triazin-7-yl)-4-methylphenyl)sulfonyl)hexahydro-3H-oxazolo[3,4-a]pyrazin-3-one] are 100 to 500 nM and more than 2000 nM.
Regarding `Cc1ccc(S(=O)(=O)N(C)CC2(C)COC2)cc1-c1cnc2c(N)ncnn12` [Example 176, 3-(4-aminoimidazo[2,1-f][1,2,4]triazin-7-yl)-N,4-dimethyl-N-((3-methyloxetan-3-yl)methyl)benzenesulfonamide], the IC50 in assay [1] is 100 to 500 nM; in assay [2] it was more than 2000 nM.
As to `COCC1(N(C)S(=O)(=O)c2ccc(C)c(-c3cnc4c(N)ncnn34)c2)CC1` [Example 177, 3-(4-aminoimidazo[2,1-f][1,2,4]triazin-7-yl)-N-(1-(methoxymethyl)cyclopropyl)-N,4-dimethylbenzenesulfonamide], the IC50 in assay [1] (read-out: PI3Kγ IC50) was less than 100 nM; in assay [2] it was 500 to 2000 nM.
In the same order, the values of `Cc1ccc(S(=O)(=O)N(C)CC2(CO)CCC2)cc1-c1cnc2c(N)ncnn12` [Example 178, 3-(4-aminoimidazo[2,1-f][1,2,4]triazin-7-yl)-N-((1-(hydroxymethyl)cyclobutyl)methyl)-N,4-dimethylbenzenesulfonamide] are less than 100 nM and 500 to 2000 nM.
For `CCN(CC1CCCO1)S(=O)(=O)c1ccc(C)c(-c2cnc3c(N)ncnn23)c1` (stereo not drawn) [Example 179, 3-(4-aminoimidazo[2,1-f][1,2,4]triazin-7-yl)-N-ethyl-4-methyl-N-((tetrahydrofuran-2-yl)methyl)benzenesulfonamide] the same measures were less than 100 nM and 500 to 2000 nM.
For `Cc1ccc(S(=O)(=O)N[C@]2(C)C[C@H](O)C2)cc1-c1cnc2c(N)ncnn12` [Example 191, 3-(4-aminoimidazo[2,1-f][1,2,4]triazin-7-yl)-N-((1s,3s)-3-hydroxy-1-methylcyclobutyl)-4-methylbenzenesulfonamide] the same measures were less than 100 nM and 500 to 2000 nM.
For `Cc1ccc(S(=O)(=O)N2CCC3(CC2)COC(=O)N3)cc1-c1cnc2c(N)ncnn12` [Example 193, 8-((3-(4-Aminoimidazo[2,1-f][1,2,4]triazin-7-yl)-4-methylphenyl)sulfonyl)-3-oxa-1,8-diazaspiro[4.5]decan-2-one], the values for the 50% inhibitory concentration (IC50) in assay [1] (read-out: PI3Kγ IC50) and in assay [2] were less than 100 nM and 500 to 2000 nM, respectively.
For `Cc1ccc(S(=O)(=O)N2CC3(CCN(C)C3=O)C2)cc1-c1cnc2c(N)ncnn12` [Example 195, 2-((3-(4-Aminoimidazo[2,1-f][1,2,4]triazin-7-yl)-4-methylphenyl)sulfonyl)-6-methyl-2,6-diazaspiro[3.4]octan-5-one] the same measures were less than 100 nM and 100 to 500 nM.
In the same order, the values of `Cc1ccc(S(=O)(=O)N2CCC(F)(F)C(O)C2)cc1-c1cnc2c(N)ncnn12` (stereo not drawn) [Example 196, 1-((3-(4-Aminoimidazo[2,1-f][1,2,4]triazin-7-yl)-4-methylphenyl)sulfonyl)-4,4-difluoropiperidin-3-ol] are less than 100 nM and 500 to 2000 nM.
